Results published in patent US20250062040A1, “COMPUTER-BASED SYSTEMS FOR ACQUIRING AND ANALYZING OBS[…] DATA” (priority 2021, published 2025).

Tests used:
[1] = system: Male SD rats; assay: rat forced swim test, long lasting antidepressant-like effects; type: in vivo; conditions: vs vehicle group, p<0.05; IP 24 H prior to testing; ketamine 10 mg/kg, Enantiomer I2 30 mg/kg
Description: Male SD rats from Envigo (IN) were used in the study. Ketamine (10 mg/kg) was dissolved in saline and administered IP at a dose volume of 1 ml/kg 24 H prior testing. Enantiomer I2 was dissolved in PBS and administered IP at a dose volume of 1 ml/kg 24 H prior to testing. Videos were scored by an observer blinded to the treatment and frequency of immobility, climbing and swimming were measured. Data were analyzed by ANOVA followed by post hoc analysis where appropriate.

[2] = pEEG spectral power signature; type: in vivo; conditions: 2-h post-injection, normalized against baseline, different doses, FIG. 21
Description: In some embodiments, pEEG may be recorded 1 hour before drug administration and for 2 hours after drug administration from all recorded brain regions simultaneously. To maximize the clinical translatability of a pEEG preclinical database, the frontal cortex and parietal cortex can be selected without limitation. ECoG EEG from these electrodes may be shown to offer direct rodent-to-human translation. Additionally, the hippocampus and striatum can be targeted for indwelling local field potential (LFP) recordings to investigate pharmacological responses on brain regions known to be innervated by different neurotransmitter systems.
In some embodiments, pEEG data consumed by a behavioral platform classier or other machine learning model can be processed first to remove artifacts. […] The average standard frequency bands are shown in Table IV listing the analyzed standard frequency bands. […]
In some embodiments, a normalization against the baseline pre-drug may be convenient, although other types of normalization may be used without limitation. pEEG and accelerometer spectrums can be normalized to the corresponding mean value x_mean during the pre-dosing interval [0, 1 hour](baseline): x_norm=(x−x_mean)/x_mean. For both pEEG and accelerometer data, the post-dosing features (obtained during the 2-hour post-dosing period) can be expressed as percent change from pre-dose baseline. […]

[3] = core temperature by rectal temperature measurement; type: in vivo, mice; conditions: 1 mg/kg intraperitoneally; before injection vs just prior to thermal camera recording
Description: In some embodiments, a validation experiment can test whether this method may effectively detect changes in body temperature induced by drugs from thermal videos. In one such test, two groups of mice can be treated with chlorpromazine 1 mg/kg (n=13) or vehicle (n=14) intraperitoneally, and tested after 15 minutes under the thermal camera system. An average change of 0.9 degree Celsius in core temperature was observed by measuring rectal temperature of animals before injection and just prior to their thermal camera recording.

[4] = eye temperature by automated thermographic system of behavioral platform; type: in vivo, mice; conditions: 1 mg/kg intraperitoneally, tested after 15 minutes, 45-minute session, vs vehicle, FIG. 37
From the text: In some embodiments, with regard to image calibration, in an experimental session, actual Peltier temperatures may be logged and saved along with the thermal camera video. The logged Peltier temperatures in Celsius can be paired to the optical density (OD) levels measured at the two Peltier ROIs in each corresponding frame, so that a linear calibration curve can be used to convert the OD of measured eye ROIs to degrees Celsius.
In some embodiments, the subject body, such as a mouse, can be segmented based on the optical density distribution on each frame. The contour of the mouse can be masked by finding the largest eight-connected objects in the binarized image as shown in FIG. 36. […] The size of the eye region relative to the mask and shape properties such as ‘Eccentricity’ (ratio of the distance between the foci of the ellipse and its major axis length) and ‘Solidity’ (proportion of the pixels in the convex hull that are also in the region, computed as Area/ConvexArea) can be measured to filter out false positives, when those parameters may be outside of the range learned from manually annotated ground truth examples.
In some embodiments, with regard to feature extraction, the average OD of automatically detected eye ROIs can be converted to Celsius based on the calibration curve. […]

SMILES: CNC1(c2ccccc2Cl)CCCCC1=O (centres unmarked) [ketamine]
- frequency of immobility in the forced swim [1]: reduced immobility
- frequency of swimming in the forced swim [1]: increased swimming
- change in pEEG power of high frequencies (gamma) [2]: dose-dependent short-term increase

SMILES: CN(C)CCCN1c2ccccc2Sc2ccc(Cl)cc21 [chlorpromazine]
- average change in core temperature (rectal temperature) [3]: 0.9 degree Celsius
- estimated eye temperature [4]: decrease of estimated eye temperature
